PMC7203344, “Sirtuin 1 Inhibiting Thiocyanates (S1th)—A New Class of Isotype Selective Inhibitors of NAD^+ Dependent Lysine Deacetylases” (Frontiers in Oncology, 2020)

Legend:
Sirt1 = target: T1, Sirt1 (Homo sapiens, UniProt Q96EB6); test: Homogeneous ZMAL-based fluorescence assay, Sirt1; format: biochemical; conditions: 4th round
T1 construct: made in house; host or cells: E. coli BL21 Star (DE3)
T1 sequence (Q96EB6 134-747): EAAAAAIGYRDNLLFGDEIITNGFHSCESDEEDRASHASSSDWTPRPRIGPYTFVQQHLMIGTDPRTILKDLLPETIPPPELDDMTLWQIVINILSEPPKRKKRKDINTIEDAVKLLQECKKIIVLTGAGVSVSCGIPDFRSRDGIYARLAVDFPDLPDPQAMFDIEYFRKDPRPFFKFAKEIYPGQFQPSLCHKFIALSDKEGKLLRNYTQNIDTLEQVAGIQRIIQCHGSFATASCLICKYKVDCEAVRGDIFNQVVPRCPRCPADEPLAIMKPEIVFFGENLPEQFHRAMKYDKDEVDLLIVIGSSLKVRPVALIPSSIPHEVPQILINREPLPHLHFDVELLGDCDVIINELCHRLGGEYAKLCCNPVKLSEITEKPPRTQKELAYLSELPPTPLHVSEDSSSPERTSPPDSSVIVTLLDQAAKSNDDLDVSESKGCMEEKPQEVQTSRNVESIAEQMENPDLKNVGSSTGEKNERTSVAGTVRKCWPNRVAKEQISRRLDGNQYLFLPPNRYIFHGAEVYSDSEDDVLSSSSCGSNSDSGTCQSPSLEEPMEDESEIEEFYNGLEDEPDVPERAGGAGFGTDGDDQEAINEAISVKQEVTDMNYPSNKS
Experimental: Recombinant human Sirt5_37−310 was purchased readily in Tris Buffer [25 mM Tris, 100 mM NaCl, 5 mM DTT, 10% glycerol (v/v)] from Enzo Life Sciences (NY, USA). Human Sirt3_118−395 was expressed and purified as described previously ([54]). For expression of human Sirt1_134−747 and Sirt2_56−356 chemically competent cells of E. coli BL21 Star (DE3) were transformed with the expression vectors pET30S-hSirt1_134−747 or pET30S-hSirt2_56−356. Bacteria were grown at 37°C in 2×YT medium supplemented with 50 μg·mL^−1 of kanamycin to an OD600 of 0.6. Then isopropyl-β-D-1-thiogalactopyranoside (IPTG) was added to a final concentration of 1 mM to induce gene expression. After further cultivation at 20°C for 12 h, the cells were harvested by centrifugation for 15 min at 5,000 g. The cells were resuspended in lysis buffer [100 mM Tris/HCl buffer at pH 8.0, 150 mM NaCl and 10% (v/v) glycerol] and disrupted by ultrasonication (Branson Digital Sonifier 250) at 70% amplitude for 10 min (3 s working, 10 s pause). The crude extract was cleared by centrifugation at 100,000 g for 1 h, and the supernatant was loaded onto a Strep-Tactin Superflow cartridge (5 ml bed volume, IBA Lifescience, Germany). Target proteins were eluted with lysis buffer containing 5 mM D-Desthiobiotin (IBA Lifescience, Germany) and further separated by size-exclusion chromatography (Superdex S200 26/60, GE Healthcare, IL, USA) equilibrated in Tris/HCl buffer (20 mM, 150 mM NaCl, pH 8.0). Pure protein was concentrated by ultrafiltration, flash-frozen in liquid nitrogen and stored at −80°C until further use. Identity as well as purity were verified by SDS-PAGE ([55]) and protein concentration was determined by the bicinchoninic acid (BCA) method, using bovine serum albumin (BSA) as a standard ([56]). Deacetylase activity was confirmed to be NAD^+-dependent and could be inhibited with the physiological sirtuin inhibitor nicotinamide.
All compounds were tested in the trypsin-coupled high-throughput ZMAL-assay in black 96-well plates (OptiPlateTM−96F, black, 96 well, Pinch bar design, PerkinElmer, USA), using ZMAL (Z-Lys(acetyl)-AMC) as a substrate ([57]). Sirt1_134−747, Sirt2_56−356, and Sirt3_118−395 were mixed with 5 μL substrate (10.5 μM final assay concentration, diluted from a […] stock in DMSO) and 3 μL Inhibitor in DMSO at various concentrations or DMSO as a control [final DMSO concentration 5% (v/v)]. The mixture was supplemented with assay buffer (50 mM Tris/HCl, 137 mM NaCl, 2.7 mM KCl, 1 mM MgCL2, pH 8.0) to a total volume of 55 μL. Enzyme concentration was adjusted to get a final conversion of 20–30%. Addition of 5 μL NAD^+ (6 mM in assay buffer, final assay concentration of 500 μM) initiated the catalytic reaction and the plates were incubated at 37°C for 4 h with agitation at 140 rpm. The catalytic reaction was stopped by addition of 60 μL stop solution [50 mM Tris, 100 mM NaCl, 6.7% (V/V) DMSO, 5.5 U/μL trypsin, 8 μM nicotinamide, pH 8.0]. The plate was again incubated at 37°C and 140 rpm for 20 min to release free AMC from the deacetylated substrate by trypsin digestion. Afterwards, fluorescence intensity was measured in a microplate reader (λEx = 390 nm, λEm = 460 nm, BMG POLARstar Optima, BMG Labtech, Germany). An enzyme-free blank control and a 100% conversion control containing AMC instead of ZMAL were measured in addition. Inhibition was calculated in % in relation to a DMSO control after blank signal subtraction and IC50 values were determined using a non-linear regression to fit the dose-response curve with OriginPro 9G (OriginLab, USA). Pre-tests as well as IC50 determination was carried out at least twice in duplicates.

HeLa cells [1] = test: Cell proliferation assay with HeLa cells; format: cell-based, human; conditions: EX-527 20 μM, S1th 13 12 μM, S1th 12 20 μM, S1th 10 30 μM; up to 120 h
Experimental: 1.5 × 10^4 cells/well were seeded in 24-well plates and grown in DMEM 10% in presence of DMSO, 20 μM EX-527, 12 μM S1th 13, 20 μM S1th 12, or 30 μM S1th 10. The growth media containing the drugs was replaced every 48 h. Cells were collected and counted at the indicated times starting 24 h after seeding (0, 24, 48, 72, 96, and 120 h). The experiment was performed twice in duplicates.

HeLa cells [2] = test: Colony forming assay with HeLa cells; format: cell-based, human; conditions: 7–10 days; concentrations as in proliferation assay
Experimental: For colony assays, 50 cells per well were seeded in 6-well plates and grown in the same conditions with the same drug concentrations as for the proliferation assays. In this case, the growth media containing the drugs was replaced every 48 h. After 7–10 days, when isolated colonies were formed, wells were washed with PBS, and cells were fixed with cold methanol for 5 min at RT. Cells were stained with crystal violet for 10 min at RT and washed with H2O. Images were acquired using iBright (Thermo Fisher Scientific, MA, USA). For quantification, cells of each well were resuspended in 10% glacial acetic acid to dissolve crystal violet whose levels were monitored by measuring absorbance at 590 nm. The experiment was performed in duplicates.

[3] = Solubility as found in testing; format: physicochemical; conditions: compared with earlier hits such as S1th 7

| Compound | IC50 (Sirt1) [µM] | solubility (in words) [3] | cell proliferation of HeLa cells (HeLa cells [1]) | colony forming of HeLa cells (HeLa cells [2]) |
| --- | --- | --- | --- | --- |
| N#CSc1cc(SC#N)c(N)nc1N [PR-619, reference compound] | 2.7 ± 0.2 | – | – | – |
| COc1ccc(SC#N)cc1OCC(=O)N(CCC#N)CCC#N [S1th 12] | 5.9 ± 1.4 | better soluble | only showed a mild effect | only mild effects |

Continued, in another order:

| IC50 (Sirt1) [µM] | solubility (in words) [3] | Compound | cell proliferation of HeLa cells (HeLa cells [1]) | colony forming of HeLa cells (HeLa cells [2]) |
| --- | --- | --- | --- | --- |
| 23 ± 6 | – | N#CSc1cccc(NC(=O)[C@H]2CC=CC[C@H]2C(=O)O)c1 [S1th 10] | significantly decreased cell proliferation | only mild effects |
| 6.3 ± 0.8 | better soluble | CCCCNC(=O)Nc1cccc(SC#N)c1 [S1th 11] | – | – |
| 5.2 ± 1 | better soluble | N#CSc1cccc(NS(=O)(=O)c2ccc3c(c2)OCCO3)c1 [S1th 13] | significantly decreased cell proliferation | almost as potent as EX-527 |
